Results taken from US11096979B2, “Pharmaceutical composition for preventing or treating liver diseases, containing licorice extract containing glycyrrhizin and liquiritin” (NOVAREX CO., LTD., priority 2016, dated 2021).

Tests used:
TNF-α, IL-1β, IL-6 = test: Inflammation-related cytokine mRNA (PCR) in LPS-treated BV2 cells; type: cell-based; settings: BV2 cells treated with LPS, FIGS. 4A-4C
Procedure: (§1) In order to investigate the molecular biological mechanism of the anti-inflammatory effect of the single components derived from the licorice extract, the following test was conducted. BV2 cells were treated with an inflammation inducer LPS, after which the extent of inhibition of the increase in proinflammatory cytokines, iNOS ([…]), COX2 (cyclooxygenase-2), etc. by three components (glycyrrhizin, liquiritin and liquiritigenin) was measured based on changes in mRNA using a PCR technique.

[1] = system: cultured hepatocytes (HepG2); settings: human, 100 μM
[2] = system: HepG2 cells with hepatotoxicity induced by t-BHP; test: Inhibition of t-BHP-induced hepatotoxicity in cultured hepatocytes; settings: HepG2, FIG. 6
[3] = system: NO production by LPS in BV2 cells; test: Inhibition of NO production by LPS in BV2 cells; type: cell-based; settings: BV2 cells, 10, 20 and 50 μM, after 24 hr, FIG. 2
Procedure: In order to evaluate the anti-inflammatory effects of single components derived from the licorice extract, BV2 cells were treated with glycyrrhizin, liquiritin and liquiritigenin at concentrations of 10, 20 and 50 μM, after which the inhibition of NO production by LPS (Lipopolysaccharide) was measured after 24 hr.

iNOS, COX2 = test: iNOS and COX2 mRNA (PCR) in LPS-treated BV2 cells; type: cell-based; settings: BV2 cells treated with LPS, FIGS. 3A-3C
Procedure: as §1

[4] = system: cultured hepatocytes (HepG2); test: Cell viability of HepG2 cells treated with single components or t-BHP; settings: HepG2, t-BHP alone, FIG. 6

Structure (SMILES): CC1(C)[C@@H](O[C@H]2O[C@H](C(=O)O)[C@@H](O)[C@H](O)[C@H]2O[C@@H]2O[C@H](C(=O)O)[C@@H](O)[C@H](O)[C@H]2O)CC[C@]2(C)[C@H]3C(=O)C=C4[C@@H]5C[C@@](C)(C(=O)O)CC[C@]5(C)CC[C@@]4(C)[C@]3(C)CC[C@@H]12 [glycyrrhizin]
- expression of inflammation-related cytokines (TNF-α, IL-1β, IL-6) (TNF-α, IL-1β, IL-6): inhibited more strongly
- cell viability [1]: ≥ 95%
- inhibition of hepatotoxicity induced by t-BHP [2]: hepatotoxicity inhibition effects increased with the treatment concentration thereof

Structure (SMILES): O=C1C[C@@H](c2ccc(O)cc2)Oc2cc(O)ccc21 [liquiritigenin]
- inhibition of NO production by LPS [3]: greatest efficacy
- expression of iNOS and COX2 (mRNA) (iNOS, COX2): also exhibited reduction effects
- inhibition of hepatotoxicity induced by t-BHP [2]: hepatotoxicity inhibition effects increased with the treatment concentration thereof

Structure (SMILES): O=C1C[C@@H](c2ccc(O[C@@H]3O[C@H](CO)[C@@H](O)[C@H](O)[C@H]3O)cc2)Oc2cc(O)ccc21 [liquiritin]
- expression of iNOS and COX2 (mRNA) (iNOS, COX2): decreased the expression of iNOS and COX2 more strongly than glycyrrhizin
- cell viability [1]: ≥ 95%
- inhibition of hepatotoxicity induced by t-BHP [2]: hepatotoxicity inhibition effects increased with the treatment concentration thereof

Structure (SMILES): CC(C)(C)OO [t-BHP, t-butyl hydroperoxide]
- cell viability upon treatment with t-BHP [4]: about 30%
